Test results taken from article PMC7931429 (ACS Omega, 2021).

Experiments:
[1] = system: CHIKV-NanoLuc; format: cell-based, Chikungunya virus; details: BHK-21 cells, MOI 10, 6 h post infection, concentration 10 times higher than IC50
[2] = biological target: T1, CHIKV nsP2 (Chikungunya virus, UniProt Q8JUX6); assay: Cell-free protease inhibition assay with recombinant CHIKV nsP2; format: biochemical; details: inhibitor 1 mM, nsP2 1.4 μM, substrate 6 μM, 30 °C, 1.5 h
T1 sequence (Q8JUX6 536-1333 limits assumed): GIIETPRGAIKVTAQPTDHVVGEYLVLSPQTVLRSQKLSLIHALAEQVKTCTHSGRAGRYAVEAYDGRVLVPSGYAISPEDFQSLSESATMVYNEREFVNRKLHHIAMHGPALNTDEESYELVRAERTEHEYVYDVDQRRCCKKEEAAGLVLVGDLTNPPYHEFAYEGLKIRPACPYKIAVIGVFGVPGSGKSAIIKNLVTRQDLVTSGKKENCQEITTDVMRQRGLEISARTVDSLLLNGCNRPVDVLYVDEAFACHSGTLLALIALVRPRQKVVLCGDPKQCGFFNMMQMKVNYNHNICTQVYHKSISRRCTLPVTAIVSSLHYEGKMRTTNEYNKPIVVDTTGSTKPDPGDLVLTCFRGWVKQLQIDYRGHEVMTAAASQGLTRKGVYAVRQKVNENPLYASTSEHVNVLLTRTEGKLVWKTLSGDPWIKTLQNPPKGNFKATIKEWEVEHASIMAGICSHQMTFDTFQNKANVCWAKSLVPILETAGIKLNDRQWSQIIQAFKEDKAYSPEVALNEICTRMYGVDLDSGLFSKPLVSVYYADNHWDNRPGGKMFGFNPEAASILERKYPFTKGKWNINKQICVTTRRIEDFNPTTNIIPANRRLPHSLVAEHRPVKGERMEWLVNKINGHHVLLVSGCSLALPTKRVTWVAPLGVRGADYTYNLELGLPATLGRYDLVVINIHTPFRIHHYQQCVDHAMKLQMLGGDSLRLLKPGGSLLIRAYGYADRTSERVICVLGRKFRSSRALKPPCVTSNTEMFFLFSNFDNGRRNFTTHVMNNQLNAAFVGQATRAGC

[3] = system: CHIKV-NanoLuc; assay: Antiviral activity against CHIKV-NanoLuc in RPE cells; format: cell-based; details: Chikungunya virus, 48 h, read-out: IC50 in RPE cells

With `O=C(Nc1ncc([N+](=O)[O-])s1)c1ccccc1O` [Compound 10, 2-hydroxy-N-(5-nitro-1,3-thiazol-2-yl)benzamide] the “Virus replication (ns-protein and capsid protein expression) by western blot” value [1] was “completely inhibited”, the “Effect on protease activity of nsP2 (amount of cleavage product)” value (from here on “Effect on protease activity of nsP2”) [2] was “strongest inhibitory effect” and the IC50 [3] was 7.3 µM.
`O=C(Nc1ncc([N+](=O)[O-])s1)c1cc(Cl)ccc1Cl` [Compound 10c, 2,5-dichloro-N-(5-nitro-1,3-thiazol-2-yl)benzamide] was tested, and the “Effect on protease activity of nsP2” value [2] was “smaller inhibitory effect than compound 10”.
“(5Z)-3-ethyl-5-(naphthalen-1-ylmethylidene)-2-sulfanylidene-1,3-oxazolidin-4-one [Compound 1]” was tested, and the “Effect on protease activity of nsP2” value [2] was “no effect”.
In the case of `O=C(Nc1ncc([N+](=O)[O-])s1)c1cccc(Cl)c1` [Compound 10b, 3-chloro-N-(5-nitro-1,3-thiazol-2-yl)benzamide], the “Effect on protease activity of nsP2” value [2] is reported as “smaller inhibitory effect than compound 10”.
